Here are results for nine compounds from ChEMBL document CHEMBL2203242, “A regio- and stereoselective 1,3-dipolar cycloaddition for the synthesis of new-fangled dispiropyrrolothiazoles as antimycobacterial agents” (Bioorg Med Chem Lett, 2012).

The subject of one experiment is Vero. The experiment is described as follows: Cytotoxicity against african green monkey Vero cells after 72 hrs by MTT assay. As to conditions: Chlorocebus sabaeus. The experiment is classed as cell-based. In general terms: Formazan colour is commonly taken as a measure of viable cells.
Experiment [1] has as its system Mycobacterium tuberculosis. The experiment is described as follows: Antimycobacterial activity against Mycobacterium tuberculosis H37Rv by agar dilution method. The class given is functional. For orientation: Agar dilution tests growth on a series of plates holding different concentrations.

Converted amounts (≈) assume the structure as drawn.

Consider `COc1cc2c(cc1OC)C(=O)[C@]1(C2)[C@@H](c2ccccc2)[C@@H]2CSCN2[C@@]12C(=O)Nc1ccc(OC(F)(F)F)cc12`, for which the concentration for half-maximal inhibition (IC50) with Vero was > 62.5 µg/mL. Also, the MIC90 in experiment [1] is > 6.25 µM.

On to `COc1cc2c(cc1OC)C(=O)[C@]1(C2)[C@@H](c2ccccc2Cl)[C@@H]2CSCN2[C@@]12C(=O)Nc1ccc(OC(F)(F)F)cc12`, for which the half-inhibitory concentration (IC50) in the experiment on Vero was > 62.5 µg/mL. The compound also showed an MIC90 in experiment [1] of 11.4 µM (≈ 7.04 µg/mL).

On to `COc1cc2c(cc1OC)C(=O)[C@]1(C2)[C@@H](c2ccc(F)cc2)[C@@H]2CSCN2[C@@]12C(=O)N(N1CCOCC1)c1ccccc12`, for which the IC50 in the experiment on Vero is > 62.5 µg/mL. This compound also had an MIC90 in experiment [1] of 8.12 µM (≈ 4.89 µg/mL).

Turning to `COc1ccc([C@H]2[C@@H]3CSCN3[C@@]3(C(=O)N(N4CCOCC4)c4ccccc43)[C@@]23Cc2cc(OC)c(OC)cc2C3=O)cc1OC`, the IC50 with Vero was > 62.5 µg/mL. This compound also gave an MIC90 in experiment [1] of 21.2 µM (≈ 13.6 µg/mL).

Regarding `COc1cc2c(cc1OC)C(=O)[C@]1(C2)[C@@H](c2ccccc2)[C@@H]2CSCN2[C@@]12C(=O)N(N1CCOCC1)c1ccccc12`, the 50% inhibitory concentration (IC50) with Vero is > 62.5 µg/mL. Besides, the MIC90 in experiment [1] was > 6.25 µM.

Take `COc1cc2c(cc1OC)C(=O)[C@]1(C2)[C@@H](c2ccccc2Cl)[C@@H]2CSCN2[C@@]12C(=O)N(N1CCOCC1)c1ccccc12`: in the experiment with Vero, the IC50 was > 62.5 µg/mL. In experiment [1], the MIC90 amounted to 6.29 µM (≈ 3.89 µg/mL).

Take `COc1cc2c(cc1OC)C(=O)[C@]1(C2)[C@@H](c2ccc(F)cc2)[C@@H]2CSCN2[C@@]12C(=O)Nc1ccc(OC(F)(F)F)cc12`: the half-maximal inhibitory concentration (IC50) in the experiment on Vero was > 62.5 µg/mL. Besides, in experiment [1], the MIC90 was 0.72 µM (≈ 0.432 µg/mL).

As to `COc1ccc([C@H]2[C@@H]3CSCN3[C@@]3(C(=O)Nc4ccc(OC(F)(F)F)cc43)[C@@]23Cc2cc(OC)c(OC)cc2C3=O)cc1OC`, the IC50 with Vero is > 62.5 µg/mL. In addition, the MIC90 in experiment [1] stood at 12.2 µM (≈ 7.85 µg/mL).

For `NNC(=O)c1ccncc1` [ISONIAZID], in the experiment with Vero, the IC50 is > 62.5 µg/mL. The compound also returned an MIC90 in experiment [1] of 0.73 µM (≈ 0.1 µg/mL).

One may read the IC50 as the concentration that inhibits the measured activity by half. One may read the MIC90 as an inhibitory concentration at the 90% level, which refers to growth in some studies and to a panel of isolates in others.
